pIC50: −log10 of the molar value. Several values for one entry are separate records, joined by “and”; a condition that tells them apart may be missing. Identical values can stand only once.
Assays:
[1] = Reducing activity of the stable radical DPPH; settings: 100 μM compound, after 20 min
Protocol: 2.2.2.1 Determination of the reducing activity of the stable radical 1, 1-diphenyl-picrylhydrazyl (DPPH)
To a solution of DPPH (100μM) in absolute ethanol an equal volume of the compounds dissolved in ethanol was added. As control solution ethanol was used. The concentration of the solutions of the compounds was 100μM. After 20 and 60 min at room temperature the absorbance was recorded at 517 nm (Table 5). NDGA was used as a standard.
The compounds were studied for their antioxidant activity by the use of the stable 2,2-diphenyl-1-picrylhydrazyl radical (DPPH) at concentration 0.1mM after 20 min. […] This purple colour generally disappears in the presence of an antioxidant. The reduction of absorbance is a measure of the free DPPH due to the action of the antioxidant. The antioxidant activity was expressed as the RA% (Reducing Activity). […] Within the group of derivatives 4 the presence of the morpholinyl or piperidinyl rings at position A as well as the carbonyl group at position B, hinder the interaction of the compounds to the free stable radical DPPH.

[2] = Competition of the tested compounds with DMSO for hydroxyl radicals; settings: 100 μM compound, Fe3+/ascorbic acid, 30 min, 37°C
Protocol: 2.2.2.2 Competition of the tested compounds with DMSO for hydroxyl radicals
The hydroxyl radicals generated by the Fe ^3+ /ascorbic acid system, were detected according to Nash, by the determination of formaldehyde produced from the oxidation of DMSO. The reaction mixture contained EDTA (0.1 mM), Fe ^3+ (167 μM), DMSO (33 mM) in phosphate buffer (50 mM, pH 7.4), the tested compounds (concentration 0.1mM) and ascorbic acid (10 mM). After 30 min of incubation (37°C) the reaction was stopped with CCl3COOH (17% w/v) (Table 5). Trolox was used as a standard.
Superoxide (O2^-.) anion and hydroxyl radical (^.OH) are free radical species of potential importance. In the acidic conditions of ischemic brain, O2^-. is probably protonated to give HO2^-. species. Iron released from damaged brain cells is more likely to be readily available to catalyze the generation of OH radicals. Among the ROS, the hydroxyl (^•OH) free radical is possibly the most toxic, as it reacts with a number of biological important molecules. Polyunsaturated fatty acids are found in high concentrations in the CNS, and are particularly vulnerable by free radicals. Thus, we tried to test the ability of our compounds to scavenge hydroxyl radicals. […] All the derivatives of series 13 (except of 13i) present high antioxidant activity (80-100%) which is not able to be correlated with any specific structural characteristic since all contain a coumarin, a purine and an isoxazolyl moiery. […] It seems that the overall molar configuration influences the response. However, antioxidants with hydrophilic or lipophilic character are both needed to act as radical scavengers in the aqueous phase or as chain-breaking antioxidants in biological membranes.

[3] = Inhibition of linoleic acid lipid peroxidation (AAPH); settings: 100 μM compound, 37°C
Protocol: 2.2.2.3 Inhibition of linoleic acid lipid peroxidation
Production of conjugated diene hydroperoxide by oxidation of linoleic acid sodium salt in an aqueous solution was monitored at 234 nm. 2,2’-Azobis(2-amidinopropane) dihydrochloride (AAPH) was used as a free radical initiator. 10 μl of the 16 mM linoleic acid sodium salt solution was added to the UV cuvette containing 0.93 ml of 0.05 M phosphate buffer, pH 7.4 prethermostated at 37°C. The oxidation reaction was initiated at 37°C under air by the addition of 50 μl of 40 mM AAPH solution. Oxidation was carried out in the presence of 10 μl of the examined compounds (stock solution in DMSO). In the assay without antioxidant, lipid oxidation was measured in the presence of the same level of DMSO. The rate of oxidation at 37°C was monitored by recording the increase in absorption at 234 nm caused by conjugated diene hydroperoxides (Table 5). Trolox was used as a standard.
Anti-lipid peroxidation activity. The water-soluble azo compound AAPH has been extensively used as a clean and controllable source of thermally produced alkyl peroxyl free radicals, through spontaneous thermal decomposition. […] In the AAPH assay, the highly reactive alkylperoxyl radicals are intercepted mainly by a hydrogen atom transfer (HAT) from the antioxidant.

[4] = target: T1, soybean lipoxygenase (Glycine max, UniProt P08170); experiment: Soybean lipoxygenase inhibition in vitro; format: biochemical; settings: for inhibition at 100 µM: read-out: %LOX @ 100μΜ; for pIC50: read-out: LOX IC50 μΜ; for %LOX @ 100μΜ: 100 μM compound
T1 construct: purchased Sigma Chemical, Co. (St. Louis, MO, USA)
T1 sequence (P08170 1-839): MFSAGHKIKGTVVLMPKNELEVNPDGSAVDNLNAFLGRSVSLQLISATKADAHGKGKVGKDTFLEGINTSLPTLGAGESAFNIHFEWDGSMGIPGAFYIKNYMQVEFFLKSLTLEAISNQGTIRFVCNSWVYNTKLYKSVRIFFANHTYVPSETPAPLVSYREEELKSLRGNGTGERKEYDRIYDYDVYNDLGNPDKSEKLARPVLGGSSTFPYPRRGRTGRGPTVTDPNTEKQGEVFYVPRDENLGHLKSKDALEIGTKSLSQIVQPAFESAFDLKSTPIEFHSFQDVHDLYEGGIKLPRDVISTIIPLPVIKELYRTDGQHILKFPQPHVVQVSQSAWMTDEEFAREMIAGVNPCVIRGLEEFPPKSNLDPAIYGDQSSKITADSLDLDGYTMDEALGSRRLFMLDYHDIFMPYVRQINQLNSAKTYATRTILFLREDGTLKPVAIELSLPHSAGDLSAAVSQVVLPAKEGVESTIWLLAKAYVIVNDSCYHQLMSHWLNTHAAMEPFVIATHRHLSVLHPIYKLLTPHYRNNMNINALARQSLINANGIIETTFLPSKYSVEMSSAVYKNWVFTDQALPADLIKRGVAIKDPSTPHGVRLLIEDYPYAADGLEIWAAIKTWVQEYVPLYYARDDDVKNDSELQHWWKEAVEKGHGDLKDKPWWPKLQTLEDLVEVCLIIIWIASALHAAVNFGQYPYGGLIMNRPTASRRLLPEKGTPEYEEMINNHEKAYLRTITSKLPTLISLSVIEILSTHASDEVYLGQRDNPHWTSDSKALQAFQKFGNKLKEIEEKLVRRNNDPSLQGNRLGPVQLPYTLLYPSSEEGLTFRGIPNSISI
Protocol: 2.2.2.4 Soybean lipoxygenase inhibition study in vitro [14]
In vitro study was evaluated as reported previously. The tested compounds dissolved in ethanol were incubated at room temperature with sodium linoleate (0.1 mM) and 0.2 ml of enzyme solution (1/9 x10^-4 w/v in saline). […] Several concentrations were used for the determination of IC50 values (Table 5).
LO is the key enzyme in leukotriene biosynthesis. Leukotrienes derived from the biotransformation of arachidonic acid catalyzed by 5-lipoxygenase (5-LO), are important inflammatory mediators implicated in several diseases. LOs play a role in membrane lipid peroxidation by forming hydroperoxides in the lipid bilayer. […] Most of the LO inhibitors are antioxidants or free radical scavengers, since lipoxygenation occurs via a carbon-centered radical. The evaluation of the novel coumarin hybrids against soybean lipoxygenase LO was accomplished by the UV-based enzyme assay.

| Compound | RA% @ 100μΜ (reducing activity, DPPH) [1] | ∙ΟΗ % @ 100μΜ (hydroxyl radical scavenging, percent inhibition of formaldehyde production) ([2]; 100 µM) | LP % @ 100μΜ (inhibition of lipid peroxidation) [3] | inhibition at 100 µM [4] | melting point | ∙ΟΗ % @ 100μΜ (hydroxyl radical scavenging, percent inhibition of formaldehyde production) [2] | pIC50 [4] | %LOX @ 100μΜ [4] |
| --- | --- | --- | --- | --- | --- | --- | --- | --- |
| Cc1cc(=O)oc2cc(OCCC3CC(Cn4cnc5c(N6CCCC6)ncnc54)=NO3)ccc12 (stereo not shown) [4j] | 44% | did not present any activity and no | 32% | 37% | 178 to 180 °C | – | – | – |
| Cc1c(C)c2c(c(C)c1O)CCC(C)(C(=O)O)O2 (stereo not shown) [Trolox, reference compound] | – | – | 76% | – | – | 83% | – | – |
| Cc1cc(=O)oc2cc(OCC3CC(Cn4cnc5c(N6CCOCC6)ncnc54)=NO3)ccc12 (stereo not shown) [4d] | – | – | 21% | 44.5% | 194 to 196 °C | – | – | – |
| O=C(Oc1ccc2oc(=O)ccc2c1)C1CC(Cn2cnc3c(N4CCOCC4)ncnc32)=NO1 (stereo not shown) [4o] | 3% | did not present any activity and no | 40% | – | 184 to 185 °C | – | 4.22 | – |
| O=c1ccc2ccc(OCc3cc(Cn4cnc5c(N6CCCC6)ncnc54)no3)cc2o1 [13g] | no | – | 43% | – | 176 to 178 °C | – | 4.20 and 4.21 | – |
| O=c1ccc2ccc(OCc3cc(Cn4cnc5c(N6CCOCC6)ncnc54)no3)cc2o1 [13f] | no | – | 23% | 25% | 174 to 175 °C | – | – | – |
| Cc1cc(=O)oc2ccc(OC(=O)C3CC(Cn4cnc5c(N6CCCCC6)ncnc54)=NO3)cc12 (stereo not shown) [4k, 4-Methyl-2-oxo-2H-chromen-6-yl 3-[(6-piperidin-1-yl-9H-purin-9-yl)methyl]-4,5-Dihydroisoxazole-5-Carboxylate] | 12% | – | 57% | – | 179 to 181 °C | – | 5.00 | – |
| O=c1ccc2ccc(OCC3=NOC(Cn4cnc5c(N6CCCCC6)ncnc54)C3)cc2o1 (stereo not shown) [11g] | – | – | no | – | 184 to 185 °C | – | – | no |
| Cc1cc(=O)oc2ccc(OCC3=NOC(Cn4cnc5c(N6CCCCC6)ncnc54)C3)cc12 (stereo not shown) [11a, 4-methyl-6-({5-[(6-piperidin-1-yl-9H-purin-9-yl)methyl]-4,5-dihydroisoxazol-3-yl}methoxy)-2H-chromen-2-one] | – | – | 44% | – | 148 to 150 °C | – | – | no |
| O=c1ccc2ccc(OCC3=NOC(n4cnc5c(N6CCCC6)ncnc54)C3)cc2o1 (stereo not shown) | – | – | – | – | 200 to 202 °C | – | – | – |
| Cc1cc(=O)oc2cc(OCC3CC(Cn4cnc5c(N6CCCC6)ncnc54)=NO3)ccc12 (stereo not shown) [4e] | – | – | 65% | – | 190 to 192 °C | – | – | no |
| Cc1cc(=O)oc2ccc(OC(=O)C3CC(Cn4cnc5c(N6CCCC6)ncnc54)=NO3)cc12 (stereo not shown) | – | – | – | – | 192 to 193 °C | – | – | – |
| CC(Cc1ccc(O)c(O)c1)C(C)Cc1ccc(O)c(O)c1 (stereo not shown) [NDGA, nordihydroguairetic acid, reference compound] | 87% | – | – | – | – | – | – | – |
| O=c1cc(OCc2cc(Cn3cnc4c(N5CCCCC5)ncnc43)no2)c2ccccc2o1 [13h] | no | – | 86% | – | 161 to 163 °C | – | 4.26 | – |
| Cc1cc(=O)oc2cc(OCc3cc(Cn4cnc5c(N6CCOCC6)ncnc54)no3)ccc12 [13d] | no | – | no | – | 179 to 180 °C | – | – | no |
| O=c1cc(OCC2CC(Cn3cnc4c(N5CCOCC5)ncnc43)=NO2)c2ccccc2o1 (stereo not shown) [4g] | – | – | 16% | 10% | 158 to 160 °C | – | – | 10% |
| Cc1cc(=O)oc2cc(OCc3cc(Cn4cnc5c(N6CCCCC6)ncnc54)no3)ccc12 | – | – | – | – | 165 to 167 °C | – | – | – |
| Cc1cc(=O)oc2ccc(OC(=O)C3CC(Cn4cnc5c(N6CCOCC6)ncnc54)=NO3)cc12 (stereo not shown) [4l] | 12% | – | 37.5% | – | 188 to 189 °C | – | 4.21 | – |
| O=c1ccc2ccc(OCc3cc(Cn4cnc5c(N6CCCCC6)ncnc54)on3)cc2o1 [15a, 7-({5-[(6-piperidin-1-yl-9H-purin-9-yl)methyl]isoxazol-3-yl}methoxy)-2H-chromen-2-one] | no | – | – | – | 140 to 142 °C | – | 4.26 | – |
| O=c1ccc2ccc(OCc3cc(Cn4cnc5c(N6CCCC6)ncnc54)on3)cc2o1 [15c] | no | – | 43% | 9% | 172 to 173 °C | – | – | 9% |
| Cc1cc(=O)oc2ccc(OCC3CC(Cn4cnc5c(N6CCCCC6)ncnc54)=NO3)cc12 (stereo not shown) [4a, 4-methyl-6-({3-[(6-piperidin-1-yl-9H-purin-9-yl)methyl]-4,5-dihydroisoxazol-5-yl}methoxy)-2H-chromen-2-one] | – | – | 63% | 6% | 180 to 182 °C | – | – | – |
